This is an account of results in ChEMBL document CHEMBL1137053, “QSAR modeling of the MAO inhibitory activity of xanthones derivatives” (Bioorg Med Chem Lett, 2004).

Each structure is given as a SMILES string.

For this assay, the target named is T1, Amine oxidase [flavin-containing] A (Homo sapiens, UniProt P21397).
T1 sequence (P21397 whole entry): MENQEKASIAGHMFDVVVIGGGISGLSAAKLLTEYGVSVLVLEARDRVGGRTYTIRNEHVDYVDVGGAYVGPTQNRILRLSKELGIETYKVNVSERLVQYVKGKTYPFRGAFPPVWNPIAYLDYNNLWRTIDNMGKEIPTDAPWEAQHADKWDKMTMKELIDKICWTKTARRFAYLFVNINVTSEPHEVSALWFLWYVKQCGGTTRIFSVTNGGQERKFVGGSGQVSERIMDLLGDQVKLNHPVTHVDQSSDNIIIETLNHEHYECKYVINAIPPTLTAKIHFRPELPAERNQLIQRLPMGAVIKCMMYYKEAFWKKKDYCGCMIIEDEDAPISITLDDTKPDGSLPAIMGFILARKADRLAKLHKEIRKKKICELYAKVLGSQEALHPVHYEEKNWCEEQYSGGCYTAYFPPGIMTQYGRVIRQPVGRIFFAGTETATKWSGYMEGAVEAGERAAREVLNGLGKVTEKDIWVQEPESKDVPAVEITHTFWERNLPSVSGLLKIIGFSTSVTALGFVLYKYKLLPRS
In words: Concentration required to inhibit monoamine oxidase activity by 50%.
As for `O=c1c2cccc(O)c2oc2cc(O)cc(O)c12`, the IC50 (as a rule, the concentration at which inhibition is half-maximal) was determined as 3.8 µM. The same measure for `COc1ccc2c(=O)c3cccc(OC)c3oc2c1`: 36 µM; for `COc1cc(O)c2c(=O)c3c(O)ccc(O)c3oc2c1` [BELLIDIFOLIN]: 0.66 µM. The same measure for `O=c1c2cc(O)c(O)cc2oc2cc(O)cc(O)c12`: 25 µM; for `COc1cccc2c(=O)c3ccc(O)cc3oc12`: 23 µM; for `COc1cc(O)c2oc3c(C)ccc(OC)c3c(=O)c2c1`: 24 µM. The same measure for `COc1ccc2c(=O)c3ccccc3oc2c1OC`: 31 µM; for `O=c1c2c(O)cc(O)cc2oc2c(O)ccc(O)c12` [DEMETHYLBELLIDIFOLIN]: 13 µM; for `O=c1c2ccccc2oc2ccc(O)cc12`: 3.8 µM. Turning to `O=c1c2cc(O)ccc2oc2cc(O)cc(O)c12`, inhibition was half-maximal at 8 µM (IC50). With `Cc1c(O)cc(O)c2c(=O)c3ccccc3oc12` the figure was 4.3 µM.

`Cc1c(O)c(Br)c2oc3ccccc3c(=O)c2c1O` yielded an IC50 of 14.9 µM.

Molecule `COc1cc(OC)c2c(=O)c3ccccc3oc2c1` came in with an IC50 of 20.2 µM.

`COc1ccc2c(=O)c3ccccc3oc2c1O`: the 50% inhibitory concentration (IC50) is 18 µM. The molecule `COc1cc(O)c2c(=O)c3c(OC)c(OC)ccc3oc2c1` [DECUSSATIN] gave an IC50 of 19 µM. Regarding `COc1cc(O)c2c(=O)c3cccc(O)c3oc2c1`, the IC50 amounted to 0.04 µM.

Molecule `Cc1c(O)c(Cl)c2oc3ccccc3c(=O)c2c1O` showed an IC50 of 27 µM. `COc1c(O)cc2oc3c(O)cccc3c(=O)c2c1O` gave an IC50 of 2.7 µM. With `CC(C)=CCC/C(C)=C\Cc1c(O)cc(O)c2c(=O)c3cccc(O)c3oc12`, 37 µM corresponded to half-maximal inhibition (IC50).

`COc1cccc2oc3c(O)cccc3c(=O)c12` gave an IC50 of 51 µM. With `O=c1c2ccc(O)cc2oc2c(O)cccc12` the figure was 4.5 µM. The same measure for `O=c1c2ccccc2oc2c(O)cccc12`: 1.3 µM; for `COc1cc(O)c2c(=O)c3cccc(OC)c3oc2c1`: 29 µM. The same measure for `COc1ccc2c(=O)c3ccccc3oc2c1`: 0.18 µM. As to `COc1cccc2oc3ccccc3c(=O)c12`, inhibition was half-maximal at 0.9 µM (IC50). The same measure for `COc1cc(OC)c2c(=O)c3cccc(OC)c3oc2c1`: 58 µM; for `COc1cccc2c(=O)c3ccccc3oc12`: 30 µM; for `Cc1c(O)cc2oc3ccccc3c(=O)c2c1O`: 3.7 µM. The same measure for `COc1ccc2oc3ccccc3c(=O)c2c1`: 5.3 µM. For `COc1cc(O)c2c(=O)c3c(O)c(O)ccc3oc2c1` [GENTIAKOCHIANIN], the half-inhibitory concentration (IC50) amounted to 8.5 µM. The same measure for `O=c1c2c(O)cc(O)cc2oc2ccc(O)c(O)c12`: 24 µM. The molecule `CC(C)=CCc1cc(O)c2oc3c(O)cccc3c(=O)c2c1O` came in with an IC50 of 3.3 µM. Take `CC(C)=CCc1cc(O)c2c(=O)c3cccc(O)c3oc2c1O`: 40 µM corresponded to half-maximal inhibition (IC50).

In the case of `COc1c(O)cc2oc3c(OC)c(O)ccc3c(=O)c2c1O`, the IC50 was found to be 32 µM.

Turning to `COc1cc(O)c2c(=O)c3ccccc3oc2c1`, the IC50 stood at 0.11 µM. The same measure for `O=c1c2ccccc2oc2ccccc12` [XANTHONE]: 0.84 µM; for `O=c1c2ccccc2oc2cc(O)ccc12`: 1.1 µM. With `COc1c(O)cc2oc3c(OC)cccc3c(=O)c2c1O` the figure was 51 µM; with `COc1c(O)ccc2c(=O)c3ccccc3oc12`, 65 µM; with `O=c1c2cccc(O)c2oc2cccc(O)c12`, 0.73 µM. In turn, `O=c1c2ccccc2oc2cccc(O)c12` came in with an IC50 of 0.31 µM. With `COc1cc2oc3c(OC)cccc3c(=O)c2c(OC)c1OC` the figure was 37 µM.
